In PubChem BioAssay AID2060512 (Molecular Pharmacology Branch, DTP, NCI, 2025):
Blank lines part the entries; values can stand above or below the molecule they belong to.

Test system: 186277-243-T-J2-PDC complex spheroid viability
Experiment: Anticancer human tumor 186277-243-T-J2-PDC patient-derived colon adenocarcinoma cell line growth inhibition [GQUAD]
Settings: for IC50: curve of first compound; for viability, T/C: stronger effect = lower value
Summary of the method: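 Tumor cells were grown as complex spheroids with HUVEC endothelial cells and mesenchymal stem cells as stroma. G-quadruplex stabilizers were combined with targeted agents over half-log dilutions from near the clinical Cmax, or from 10 microM.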

[1] = second compound 0.0316 µM, first compound 0.000999 µM
[2] = second compound 0.0316 µM, first compound 0.00316 µM
[3] = second compound 0.0316 µM, first compound 0.00999 µM
[4] = second compound 0.0316 µM, first compound 0.0316 µM
[5] = second compound 0.0316 µM, first compound 0.0999 µM
[6] = second compound 0.0316 µM, first compound 0.316 µM
[7] = second compound 0.1 µM, first compound 0.000999 µM
[8] = second compound 0.1 µM, first compound 0.00316 µM
[9] = second compound 0.1 µM, first compound 0.00999 µM
[10] = second compound 0.1 µM, first compound 0.0316 µM
[11] = second compound 0.1 µM, first compound 0.0999 µM
[12] = second compound 0.1 µM, first compound 0.316 µM
[13] = second compound 0.316 µM, first compound 0.000999 µM
[14] = second compound 0.316 µM, first compound 0.00316 µM
[15] = second compound 0.316 µM, first compound 0.00999 µM
[16] = second compound 0.316 µM, first compound 0.0316 µM
[17] = second compound 0.316 µM, first compound 0.0999 µM
[18] = second compound 0.316 µM, first compound 0.316 µM
[19] = second compound 1 µM, first compound 0.000999 µM
[20] = second compound 1 µM, first compound 0.00316 µM
[21] = second compound 1 µM, first compound 0.00999 µM
[22] = second compound 1 µM, first compound 0.0316 µM
[23] = second compound 1 µM, first compound 0.0999 µM
[24] = second compound 1 µM, first compound 0.316 µM
[25] = second compound 3.16 µM, first compound 0.000999 µM
[26] = second compound 3.16 µM, first compound 0.00316 µM
[27] = second compound 3.16 µM, first compound 0.00999 µM
[28] = second compound 3.16 µM, first compound 0.0316 µM
[29] = second compound 3.16 µM, first compound 0.0999 µM
[30] = second compound 3.16 µM, first compound 0.316 µM
[31] = second compound 10 µM, first compound 0.000999 µM
[32] = second compound 10 µM, first compound 0.00316 µM
[33] = second compound 10 µM, first compound 0.00999 µM
[34] = second compound 10 µM, first compound 0.0316 µM
[35] = second compound 10 µM, first compound 0.0999 µM
[36] = second compound 10 µM, first compound 0.316 µM
[37] = second compound 0.0316 µM, first compound 0.1 µM
[38] = second compound 0.0316 µM, first compound 1 µM
[39] = second compound 0.0316 µM, first compound 3.16 µM
[40] = second compound 0.0316 µM, first compound 10 µM
[41] = second compound 0.1 µM, first compound 0.1 µM
[42] = second compound 0.1 µM, first compound 1 µM
[43] = second compound 0.1 µM, first compound 3.16 µM
[44] = second compound 0.1 µM, first compound 10 µM
[45] = second compound 0.316 µM, first compound 0.1 µM
[46] = second compound 0.316 µM, first compound 1 µM
[47] = second compound 0.316 µM, first compound 3.16 µM
[48] = second compound 0.316 µM, first compound 10 µM
[49] = second compound 1 µM, first compound 0.1 µM
[50] = second compound 1 µM, first compound 1 µM
[51] = second compound 1 µM, first compound 3.16 µM
[52] = second compound 1 µM, first compound 10 µM
[53] = second compound 3.16 µM, first compound 0.1 µM
[54] = second compound 3.16 µM, first compound 1 µM
[55] = second compound 3.16 µM, first compound 3.16 µM
[56] = second compound 3.16 µM, first compound 10 µM
[57] = second compound 10 µM, first compound 0.1 µM
[58] = second compound 10 µM, first compound 1 µM
[59] = second compound 10 µM, first compound 3.16 µM
[60] = second compound 10 µM, first compound 10 µM
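Further: spheroids exposed to drugs for 7 days.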
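Wherever viability, T/C is given: 100% = DMSO vehicle control viability.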

- IC50 (second compound 0.0316 µM): 0.0309 µM
- IC50 (second compound 0.1 µM): 0.0179 µM
- IC50 (second compound 0.316 µM): 0.0102 µM
- IC50 (second compound 1 µM): < 0.000999 µM
- IC50 (second compound 3.16 µM): < 0.000999 µM
- IC50 (second compound 10 µM): < 0.000999 µM
SMILES: Cc1[nH]c2ccccc2c1CCNCc1ccc(/C=C/C(=O)NO)cc1 + Cc1cnc(CNC(=O)c2c(=O)c3ccc(N4CCCN(C)CC4)nc3n3c2sc2ccccc23)cn1
- viability, T/C [1]: 108%
- viability, T/C [2]: 101%
- viability, T/C [3]: 110%
- viability, T/C [4]: 48.9%
- viability, T/C [5]: 13.6%
- viability, T/C [6]: 1.14%
- viability, T/C [7]: 77.5%
- viability, T/C [8]: 79.7%
- viability, T/C [9]: 61.4%
- viability, T/C [10]: 36.7%
- viability, T/C [11]: 15.4%
- viability, T/C [12]: 0.78%
- viability, T/C [13]: 58.4%
- viability, T/C [14]: 52.8%
- viability, T/C [15]: 49.2%
- viability, T/C [16]: 34.9%
- viability, T/C [17]: 9.31%
- viability, T/C [18]: 1.35%
- viability, T/C [19]: 40.5%
- viability, T/C [20]: 40.9%
- viability, T/C [21]: 38.4%
- viability, T/C [22]: 20%
- viability, T/C [23]: 4.65%
- viability, T/C [24]: 0.08%
- viability, T/C [25]: 35%
- viability, T/C [26]: 38.6%
- viability, T/C [27]: 28.3%
- viability, T/C [28]: 21.6%
- viability, T/C [29]: 0.18%
- viability, T/C [30]: 0.11%
- viability, T/C [31]: 34.7%
- viability, T/C [32]: 36.3%
- viability, T/C [33]: 28.8%
- viability, T/C [34]: 18.9%
- viability, T/C [35]: 0.27%
- viability, T/C [36]: 0.24%

SMILES: CC(C)n1c(=O)n(C)c2cnc3cc(F)c(-c4ccc(OCCCN5CCCCC5)nc4)cc3c21 + Cc1[nH]c2ccc(F)cc2c1-c1nc2c3cccnc3c3ncccc3c2[nH]1
- IC50 (second compound 0.0316 µM): > 10 µM
- IC50 (second compound 0.1 µM): > 10 µM
- IC50 (second compound 0.316 µM): > 10 µM
- IC50 (second compound 1 µM): > 10 µM
- IC50 (second compound 3.16 µM): > 10 µM
- IC50 (second compound 10 µM): > 10 µM
- viability, T/C [4]: 102%
- viability, T/C [37]: 94.9%
- viability, T/C [6]: 106%
- viability, T/C [38]: 95.5%
- viability, T/C [39]: 101%
- viability, T/C [40]: 83.6%
- viability, T/C [10]: 108%
- viability, T/C [41]: 91.4%
- viability, T/C [12]: 99.6%
- viability, T/C [42]: 104%
- viability, T/C [43]: 93.6%
- viability, T/C [44]: 89.2%
- viability, T/C [16]: 83.3%
- viability, T/C [45]: 105%
- viability, T/C [18]: 101%
- viability, T/C [46]: 89.5%
- viability, T/C [47]: 113%
- viability, T/C [48]: 98.5%
- viability, T/C [22]: 87.9%
- viability, T/C [49]: 89.8%
- viability, T/C [24]: 104%
- viability, T/C [50]: 102%
- viability, T/C [51]: 100%
- viability, T/C [52]: 97.7%
- viability, T/C [28]: 91.7%
- viability, T/C [53]: 90.2%
- viability, T/C [30]: 105%
- viability, T/C [54]: 103%
- viability, T/C [55]: 103%
- viability, T/C [56]: 96.3%
- viability, T/C [34]: 96%
- viability, T/C [57]: 94.7%
- viability, T/C [36]: 104%
- viability, T/C [58]: 104%
- viability, T/C [59]: 89%
- viability, T/C [60]: 93.3%

SMILES: CCCS(=O)(=O)Nc1ccc(F)c(C(=O)c2c[nH]c3ncc(-c4ccc(Cl)cc4)cc23)c1F + Cc1[nH]c2ccc(F)cc2c1-c1nc2c3cccnc3c3ncccc3c2[nH]1
- IC50 (second compound 0.0316 µM): 6.01 µM
- IC50 (second compound 0.1 µM): 6.44 µM
- IC50 (second compound 0.316 µM): 5.92 µM
- IC50 (second compound 1 µM): 6.94 µM
- IC50 (second compound 3.16 µM): 5.65 µM
- IC50 (second compound 10 µM): 5.28 µM
- viability, T/C [4]: 109%
- viability, T/C [37]: 105%
- viability, T/C [6]: 99%
- viability, T/C [38]: 91%
- viability, T/C [39]: 86%
- viability, T/C [40]: 24.1%
- viability, T/C [10]: 111%
- viability, T/C [41]: 107%
- viability, T/C [12]: 101%
- viability, T/C [42]: 103%
- viability, T/C [43]: 98.5%
- viability, T/C [44]: 20%
- viability, T/C [16]: 111%
- viability, T/C [45]: 107%
- viability, T/C [18]: 104%
- viability, T/C [46]: 119%
- viability, T/C [47]: 82.7%
- viability, T/C [48]: 22.7%
- viability, T/C [22]: 89.6%
- viability, T/C [49]: 107%
- viability, T/C [24]: 108%
- viability, T/C [50]: 115%
- viability, T/C [51]: 103%
- viability, T/C [52]: 25.3%
- viability, T/C [28]: 110%
- viability, T/C [53]: 113%
- viability, T/C [30]: 97.9%
- viability, T/C [54]: 95%
- viability, T/C [55]: 89.8%
- viability, T/C [56]: 13.7%
- viability, T/C [34]: 90.2%
- viability, T/C [57]: 95.9%
- viability, T/C [36]: 103%
- viability, T/C [58]: 98.4%
- viability, T/C [59]: 82%
- viability, T/C [60]: 9.98%

- IC50 (second compound 0.0316 µM): > 0.316 µM
- IC50 (second compound 0.1 µM): > 0.316 µM
- IC50 (second compound 0.316 µM): > 0.316 µM
- IC50 (second compound 1 µM): > 0.316 µM
- IC50 (second compound 3.16 µM): > 0.316 µM
- IC50 (second compound 10 µM): < 0.000999 µM
SMILES: Cn1ncnc1[C@H]1c2n[nH]c(=O)c3cc(F)cc(c23)N[C@@H]1c1ccc(F)cc1 + Cc1cnc(CNC(=O)c2c(=O)c3ccc(N4CCCN(C)CC4)nc3n3c2sc2ccccc23)cn1
- viability, T/C [1]: 107%
- viability, T/C [2]: 101%
- viability, T/C [3]: 108%
- viability, T/C [4]: 78.6%
- viability, T/C [5]: 85.2%
- viability, T/C [6]: 78.2%
- viability, T/C [7]: 102%
- viability, T/C [8]: 103%
- viability, T/C [9]: 84.3%
- viability, T/C [10]: 94.8%
- viability, T/C [11]: 85.5%
- viability, T/C [12]: 71.6%
- viability, T/C [13]: 75.7%
- viability, T/C [14]: 79.2%
- viability, T/C [15]: 80.1%
- viability, T/C [16]: 77%
- viability, T/C [17]: 73.1%
- viability, T/C [18]: 70.3%
- viability, T/C [19]: 65.6%
- viability, T/C [20]: 57.3%
- viability, T/C [21]: 59.2%
- viability, T/C [22]: 59.4%
- viability, T/C [23]: 62.5%
- viability, T/C [24]: 52.8%
- viability, T/C [25]: 48.1%
- viability, T/C [26]: 55.6%
- viability, T/C [27]: 52.5%
- viability, T/C [28]: 51.4%
- viability, T/C [29]: 54%
- viability, T/C [30]: 48.7%
- viability, T/C [31]: 46%
- viability, T/C [32]: 42.1%
- viability, T/C [33]: 43.4%
- viability, T/C [34]: 46.9%
- viability, T/C [35]: 55.7%
- viability, T/C [36]: 42.5%
